{
  "source": "paper PMC10485003",
  "about": "“Antibiotic hyper-resistance in a class I aminoacyl-tRNA synthetase with altered active site signature motif” (Nature Communications, 2023)",
  "molecular_target": "T1, wt-HVGH TtIleRS2 (Thermus thermophilus, UniProt P56690)",
  "T1 construct": "hexa-histidine tag (pET28b(+)) (N); made in house; host or cells: E. coli Rosetta2 (DE3)",
  "T1 sequence (P56690 1-1043)": "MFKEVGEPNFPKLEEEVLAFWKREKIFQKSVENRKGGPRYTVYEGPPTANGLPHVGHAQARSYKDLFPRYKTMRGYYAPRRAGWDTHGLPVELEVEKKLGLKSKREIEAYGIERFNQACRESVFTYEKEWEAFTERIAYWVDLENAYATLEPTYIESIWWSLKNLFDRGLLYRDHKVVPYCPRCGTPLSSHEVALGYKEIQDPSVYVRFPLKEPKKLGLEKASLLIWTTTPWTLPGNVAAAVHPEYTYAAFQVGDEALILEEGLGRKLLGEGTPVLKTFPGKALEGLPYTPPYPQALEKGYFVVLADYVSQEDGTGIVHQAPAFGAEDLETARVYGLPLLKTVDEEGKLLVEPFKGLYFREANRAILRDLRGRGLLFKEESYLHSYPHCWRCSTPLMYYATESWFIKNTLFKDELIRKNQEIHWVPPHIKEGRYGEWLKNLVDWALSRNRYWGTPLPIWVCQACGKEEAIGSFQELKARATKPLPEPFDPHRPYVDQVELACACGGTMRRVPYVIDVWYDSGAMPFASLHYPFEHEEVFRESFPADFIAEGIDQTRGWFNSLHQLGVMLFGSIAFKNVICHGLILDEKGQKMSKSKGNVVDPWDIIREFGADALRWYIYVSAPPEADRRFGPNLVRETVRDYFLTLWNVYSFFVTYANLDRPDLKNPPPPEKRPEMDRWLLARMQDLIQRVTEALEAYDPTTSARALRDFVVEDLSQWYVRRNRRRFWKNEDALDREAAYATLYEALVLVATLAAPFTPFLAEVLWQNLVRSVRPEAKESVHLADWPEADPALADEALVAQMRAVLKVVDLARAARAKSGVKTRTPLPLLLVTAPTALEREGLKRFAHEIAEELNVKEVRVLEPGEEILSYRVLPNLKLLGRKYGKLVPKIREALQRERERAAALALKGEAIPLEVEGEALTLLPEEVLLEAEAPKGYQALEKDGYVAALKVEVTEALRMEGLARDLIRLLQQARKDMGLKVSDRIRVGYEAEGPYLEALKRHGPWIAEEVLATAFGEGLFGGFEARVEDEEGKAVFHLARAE",
  "test": "ATP-PPi exchange assay, mupirocin inhibition of amino acid activation",
  "assay_type": "biochemical",
  "method": "L-Ile and ATP concentrations ranged from 1/10 KM to 10 KM values. When measuring the KI towards one of the substrates, the other was held in saturation (concentrations at least 10 KM). The aliquots of the reaction mixture (1–2.5 μl) were quenched in 2 volumes of 500 mM NaOAc pH = 4.5, 0.1% SDS, and formed ^32P-ATP was separated from the remaining ^32P-PPi by thin-layer chromatography on Polygram CEL 300 PEI UV254 TLC plates (Macherey-Nagel, cat: 801063) using 750 mM KH2PO4 pH=3.5, 4 M urea buffer. Visualization and quantification of the signals was performed using a Typhoon Phosphoimager 5 (General Electric) and accompanying ImageQuant™ TL software (SV: 10.2). The kinetic constants were determined using a global fit option of the competitive inhibition model of GraphPad Prism 6 software (SV: 6.01). All experiments were performed in triplicates. The kcat was determined by dividing the maximal velocity, VM, with the used enzyme concentration. […]\nvariable substrate (ATP or Ile) was varied in the range of 0.1 KM to 10 KM. The other substrate (Ile or ATP) was kept in excess at 5 to 10 KM. Data were globally fitted to the competitive inhibition model using GraphPad prism 6.01 for Windows software. The values represent the average value ± SD of three independent experiments. Source data are provided as a Source Data file.",
  "note": "Where “and” joins values, the source holds several entries; their conditions need not be identical. Equal values may be shown once.",
  "data": [
    {"smiles": "C/C(=C\\C(=O)OCCCCCCCCC(=O)O)C[C@@H]1OC[C@H](C[C@@H]2O[C@H]2[C@@H](C)[C@H](C)O)[C@@H](O)[C@H]1O", "note": "[mupirocin]", "values": [
      {"measurement": "Ki", "setting": "KI (MUP)ATP, amino acid activation assay, ATP as variable substrate, average ± SD of three independent experiments", "result": "200 ± 10", "unit": "nM"},
      {"measurement": "Ki", "setting": "KI (MUP)Ile, amino acid activation step, ATP/PPi exchange assay, Ile varied, ATP saturating, average ± SD of three independent experiments", "result": "200 ± 10", "unit": "nM"},
      {"measurement": "Ki", "setting": "KI, single replicates, mupirocin inhibition towards Ile, GraphPad Prism output, Repl1-Repl3", "result": "190 nM and 200 nM (3×)"},
      {"measurement": "initial velocity vo", "setting": "c(mupirocin) 0.25 μM, c(ATP) 0.5 mM", "result": "0.00545 mM/min and 0.00625 mM/min and 0.00878 mM/min"},
      {"measurement": "initial velocity vo", "setting": "c(mupirocin) 0.25 μM, c(ATP) 1.0 mM", "result": "0.00989 mM/min and 0.00933 mM/min and 0.0106 mM/min"},
      {"measurement": "initial velocity vo", "setting": "c(mupirocin) 0.25 μM, c(ATP) 2.5 mM", "result": "0.01904 mM/min and 0.0219 mM/min and 0.02129 mM/min"},
      {"measurement": "initial velocity vo", "setting": "c(mupirocin) 0.25 μM, c(ATP) 5.0 mM", "result": "0.03233 mM/min and 0.03269 mM/min and 0.0316 mM/min"},
      {"measurement": "initial velocity vo", "setting": "c(mupirocin) 0.25 μM, c(ATP) 10.0 mM", "result": "0.04434 mM/min and 0.04682 mM/min and 0.04511 mM/min"},
      {"measurement": "initial velocity vo", "setting": "c(mupirocin) 0.25 μM, c(ATP) 15.0 mM", "result": "0.0472 mM/min and 0.05017 mM/min and 0.05086 mM/min"},
      {"measurement": "initial velocity vo", "setting": "c(mupirocin) 0.25 μM, c(Ile) 5.0 μM", "result": "0.00612 mM/min and 0.00672 mM/min and 0.00733 mM/min"},
      {"measurement": "initial velocity vo", "setting": "c(mupirocin) 0.25 μM, c(Ile) 15.0 μM", "result": "0.0169 mM/min and 0.01596 mM/min"},
      {"measurement": "initial velocity vo", "setting": "c(mupirocin) 0.5 μM, c(ATP) 0.5 mM", "result": "0.00322 mM/min and 0.00373 mM/min and 0.00334 mM/min"},
      {"measurement": "initial velocity vo", "setting": "c(mupirocin) 0.5 μM, c(ATP) 1.0 mM", "result": "0.00754 mM/min and 0.00751 mM/min and 0.00747 mM/min"},
      {"measurement": "initial velocity vo", "setting": "c(mupirocin) 0.5 μM, c(ATP) 2.5 mM", "result": "0.01415 mM/min and 0.01653 mM/min and 0.01647 mM/min"},
      {"measurement": "initial velocity vo", "setting": "c(mupirocin) 0.5 μM, c(ATP) 5.0 mM", "result": "0.02341 mM/min and 0.024 mM/min and 0.02727 mM/min"},
      {"measurement": "initial velocity vo", "setting": "c(mupirocin) 0.5 μM, c(ATP) 10.0 mM", "result": "0.03666 mM/min and 0.03855 mM/min and 0.03894 mM/min"},
      {"measurement": "initial velocity vo", "setting": "c(mupirocin) 0.5 μM, c(ATP) 15.0 mM", "result": "0.04188 mM/min and 0.04379 mM/min and 0.0434 mM/min"},
      {"measurement": "initial velocity vo", "setting": "c(mupirocin) 0.5 μM, c(Ile) 5.0 μM", "result": "0.00349 mM/min and 0.00358 mM/min and 0.00422 mM/min"},
      {"measurement": "initial velocity vo", "setting": "c(mupirocin) 0.5 μM, c(Ile) 15.0 μM", "result": "0.01037 mM/min and 0.01135 mM/min and 0.01134 mM/min"},
      {"measurement": "initial velocity vo", "setting": "c(mupirocin) 1.0 μM, c(ATP) 1.0 mM", "result": "0.00403 mM/min and 0.00377 mM/min and 0.00474 mM/min"},
      {"measurement": "initial velocity vo", "setting": "c(mupirocin) 1.0 μM, c(ATP) 2.5 mM", "result": "0.00961 mM/min and 0.01146 mM/min and 0.01193 mM/min"},
      {"measurement": "initial velocity vo", "setting": "c(mupirocin) 1.0 μM, c(ATP) 5.0 mM", "result": "0.01986 mM/min and 0.02034 mM/min and 0.01615 mM/min"},
      {"measurement": "initial velocity vo", "setting": "c(mupirocin) 1.0 μM, c(ATP) 10.0 mM", "result": "0.02901 mM/min and 0.02831 mM/min and 0.02535 mM/min"},
      {"measurement": "initial velocity vo", "setting": "c(mupirocin) 1.0 μM, c(ATP) 15.0 mM", "result": "0.03565 mM/min and 0.03315 mM/min and 0.03301 mM/min"},
      {"measurement": "initial velocity vo", "setting": "c(mupirocin) 1.0 μM, c(Ile) 5.0 μM", "result": "0.0018 mM/min and 0.00161 mM/min and 0.00213 mM/min"},
      {"measurement": "initial velocity vo", "setting": "c(mupirocin) 1.0 μM, c(Ile) 15.0 μM", "result": "0.00627 mM/min and 0.00604 mM/min and 0.00608 mM/min"},
      {"measurement": "initial velocity vo", "setting": "c(mupirocin) 1.0 μM, c(Ile) 50.0 μM", "result": "0.01613 mM/min and 0.01634 mM/min and 0.01627 mM/min"},
      {"measurement": "initial velocity vo", "setting": "c(mupirocin) 2.5 μM, c(ATP) 2.5 mM", "result": "0.00405 mM/min and 0.00296 mM/min and 0.00525 mM/min"},
      {"measurement": "initial velocity vo", "setting": "c(mupirocin) 2.5 μM, c(ATP) 5.0 mM", "result": "0.00797 mM/min and 0.00918 mM/min and 0.01147 mM/min"},
      {"measurement": "initial velocity vo", "setting": "c(mupirocin) 2.5 μM, c(ATP) 10.0 mM", "result": "0.01533 mM/min and 0.01708 mM/min and 0.0168 mM/min"},
      {"measurement": "initial velocity vo", "setting": "c(mupirocin) 2.5 μM, c(ATP) 15.0 mM", "result": "0.02441 mM/min and 0.0241 mM/min and 0.02037 mM/min"},
      {"measurement": "initial velocity vo", "setting": "c(mupirocin) 5.0 μM, c(ATP) 2.5 mM", "result": "0.00309 mM/min and 0.0024 mM/min and 0.0026 mM/min"},
      {"measurement": "initial velocity vo", "setting": "c(mupirocin) 5.0 μM, c(ATP) 5.0 mM", "result": "0.00527 mM/min and 0.00709 mM/min and 0.00659 mM/min"},
      {"measurement": "initial velocity vo", "setting": "c(mupirocin) 5.0 μM, c(ATP) 10.0 mM", "result": "0.01002 mM/min and 0.00944 mM/min and 0.01333 mM/min"},
      {"measurement": "initial velocity vo", "setting": "c(mupirocin) 5.0 μM, c(ATP) 15.0 mM", "result": "0.01409 mM/min and 0.01329 mM/min"},
      {"measurement": "initial velocity vo", "setting": "c(mupirocin) 5.0 μM, c(Ile) 5.0 μM", "result": "0.00137 mM/min and 0.00102 mM/min and 0.00071 mM/min"},
      {"measurement": "initial velocity vo", "setting": "c(mupirocin) 5.0 μM, c(Ile) 15.0 μM", "result": "0.00213 mM/min and 0.00316 mM/min and 0.00307 mM/min"}
    ]}
  ]
}
